The values below come from ChEMBL document CHEMBL1629476, “Synthesis and biological evaluation of aminoketones” (2010).

Values after ≈ are worked out from the molar mass of the structure shown.

Common to all, as to type: functional
The test system of one assay is Staphylococcus aureus. In words: Antibacterial activity against Staphylococcus aureus after 16 hrs by serial dilution method.
A further assay relates to Bacillus subtilis. In words: Antibacterial activity against Bacillus subtilis after 16 hrs by serial dilution method.
In the next assay the test system is Escherichia coli. In words: Antibacterial activity against Escherichia coli after 16 hrs by serial dilution method.
Another assay deals with Pseudomonas aeruginosa. In words: Antibacterial activity against Pseudomonas aeruginosa after 16 hrs by serial dilution method.

With `COc1ccc(F)c(C(Nc2ccc(F)cc2F)C2CCCCC2=O)c1` (stereo not drawn), the MIC with Staphylococcus aureus was determined as 3.12 µg/mL (≈ 8.6 µM); with Bacillus subtilis, 1.61 µg/mL (≈ 4.44 µM); with Escherichia coli, 1.61 µg/mL (≈ 4.44 µM); in the assay with Pseudomonas aeruginosa, 1.61 µg/mL (≈ 4.44 µM).
Consider `CC(C)(C)c1ccc(NC(c2ccccc2)C2CCCCC2=O)cc1` (stereo not drawn), for which the MIC against Staphylococcus aureus is 6.25 µg/mL (≈ 18.6 µM); against Bacillus subtilis, 6.25 µg/mL (≈ 18.6 µM); in the assay with Escherichia coli, 12.5 µg/mL (≈ 37.3 µM); with Pseudomonas aeruginosa it was 6.25 µg/mL (≈ 18.6 µM).
With `O=C1CCCCC1C(Nc1ccc(F)cc1F)c1ccc(F)cc1` (stereo not drawn), the MIC in the assay on Staphylococcus aureus, with Bacillus subtilis, in the assay on Escherichia coli and in the assay with Pseudomonas aeruginosa was 1.61 µg/mL (≈ 4.84 µM) throughout.
With `N#Cc1ccc(NC(c2ccccc2Cl)C2CCCCC2=O)cc1` (stereo not drawn), the MIC in the assay with Staphylococcus aureus turned out to be 3.12 µg/mL (≈ 9.22 µM); against Bacillus subtilis, 1.61 µg/mL (≈ 4.76 µM); against Escherichia coli, 1.61 µg/mL (≈ 4.76 µM); in the assay with Pseudomonas aeruginosa, 1.61 µg/mL (≈ 4.76 µM).
`O=C1CCCCC1C(Nc1ccc(F)c(F)c1)c1ccccc1F` (stereo not drawn): the MIC with Staphylococcus aureus is 3.12 µg/mL (≈ 9.37 µM); with Bacillus subtilis, 1.61 µg/mL (≈ 4.84 µM); against Escherichia coli it was 1.61 µg/mL (≈ 4.84 µM); against Pseudomonas aeruginosa it was 1.61 µg/mL (≈ 4.84 µM).
Consider `C=CCOc1ccccc1C(Nc1cccc(F)c1)C1CCCCC1=O` (stereo not drawn), for which the MIC against Staphylococcus aureus worked out at 6.25 µg/mL (≈ 17.7 µM); against Bacillus subtilis, 3.12 µg/mL (≈ 8.84 µM); in the assay with Escherichia coli it was 3.12 µg/mL (≈ 8.84 µM); against Pseudomonas aeruginosa it was 6.25 µg/mL (≈ 17.7 µM).
Turning to `COc1cccc(NC(c2cccc(C)c2O)C2CCCCC2=O)c1` (stereo not drawn), the MIC in the assay on Staphylococcus aureus, against Bacillus subtilis, against Escherichia coli and against Pseudomonas aeruginosa was 1.61 µg/mL (≈ 4.75 µM) throughout.
Turning to `CCc1ccc(C(Nc2cc(F)c(F)c(F)c2)C2CCCCC2=O)cc1` (stereo not drawn), the minimum inhibitory concentration (MIC) with Staphylococcus aureus, against Bacillus subtilis, against Escherichia coli and in the assay on Pseudomonas aeruginosa was 12.5 µg/mL (≈ 34.6 µM) each time.
`CCc1ccc(C(Nc2ccc(C)c([N+](=O)[O-])c2)C2CCCCC2=O)cc1` (stereo not drawn): the MIC against Staphylococcus aureus is 6.25 µg/mL (≈ 17.1 µM); in the assay with Bacillus subtilis it was 6.25 µg/mL (≈ 17.1 µM); in the assay on Escherichia coli, 6.25 µg/mL (≈ 17.1 µM); in the assay with Pseudomonas aeruginosa it was 25 µg/mL (≈ 68.2 µM).
As for `O=C1CCCCC1C(Nc1cccc2ccccc12)c1cc2ccccc2o1` (stereo not drawn), the MIC in the assay on Staphylococcus aureus was 3.12 µg/mL (≈ 8.46 µM); against Bacillus subtilis, 3.12 µg/mL (≈ 8.46 µM); against Escherichia coli it was 1.61 µg/mL (≈ 4.37 µM); against Pseudomonas aeruginosa, 1.61 µg/mL (≈ 4.37 µM).
With `Cc1cc2cc(NC(c3ccncc3)C3CCCCC3=O)ccc2[nH]1` (stereo not drawn), the MIC in the assay with Staphylococcus aureus turned out to be 3.12 µg/mL (≈ 9.37 µM); with Bacillus subtilis, 1.61 µg/mL (≈ 4.84 µM); with Escherichia coli, 1.61 µg/mL (≈ 4.84 µM); against Pseudomonas aeruginosa, 1.61 µg/mL (≈ 4.84 µM).
`CO/N=C(\C(=O)N[C@@H]1C(=O)N2C(C(=O)O)=C(CSc3nc(=O)c(O)nn3C)CS[C@H]12)c1csc(N)n1` [CEFTRIAXONE]: the MIC came to 3.12 µg/mL (≈ 5.63 µM) against Staphylococcus aureus, 1.61 µg/mL (≈ 2.91 µM) against Bacillus subtilis, 1.61 µg/mL (≈ 2.91 µM) against Escherichia coli and 1.61 µg/mL (≈ 2.91 µM) with Pseudomonas aeruginosa.
